Reference: US7495023B2, “Thio semicarbazone and semicarbozone inhibitors of cysteine proteases and methods of their use” (The Regents of the University of California, priority 2002, dated 2009)
Where two headings read alike, the source gives them in different places.

Key:
[1] = target: T. cruzi cathepsin L-like protease (cruzain) (Trypanosoma cruzi, UniProt P25779); assay: biochemical
Method: IC50 Determinations. Inhibitors were screened for effectiveness against the T. cruzi cathepsin L-like protease (cruzain) using purified recombinant protein. Cruzain (1 nM) was incubated with 20-50000 nM inhibitor in 100 mM sodium acetate-5 mM DTT buffer (pH 5.50, buffer A) for 5 min at room temperature. […] The increase in fluorescence (excitation at 355 nm and emission at 460 nm) was followed with an automated microtiter plate spectrofluorimeter (Molecular Devices, spectraMAX Gemini). Inhibitor stock solutions were prepared at 20 mM in DMSO, and serial dilutions were made in DMSO (0.7% DMSO in assay). Controls were performed using enzyme alone and enzyme with DMSO. IC50 values were determined graphically using inhibitor concentrations in the linear portion of a plot of inhibition versus log [I] (seven concentrations were tested, and at least two were in the linear range).

[2] = system: T. cruzi (Y strain); assay: Anti-trypanosomal cell culture assay, T. cruzi-infected J774 macrophages; format: cell-based; details: inhibitor 10 μM, cultures up to 30 days
Method: Drug Screening in Cell Culture. Mammalian cells are routinely cultured in RPMI-1640 medium supplemented with 5-10% heat-inactivated fetal calf serum (FCS) at 37° C. in 5% CO2. The Y strain of T. cruzi is maintained by serial passage in bovine embryo skeletal muscle (BESM) cells. Infectious trypomastigotes are collected from culture supernatants. For drug assays, J774 macrophages were irradiated (5000 rad) and plated onto six-well tissue culture plates 24 h prior to infection with ˜106 trypomastigotes/well. […] Inhibitor stocks (10 mM) in DMSO were stored at 4° C. J774 monolayers treated with a blank containing DMSO are used as a negative control, and monolayers treated with a known trypanocidal inhibitor, 10 μM N-methyl piperazine-Phe-homoPhe-vinyl sulfone phenyl (N-Pip-F-hF-VSPh) acted as a positive control (Engel et al., J. Exp. Med., 188:725-734 (1998)). RPMI medium with or without inhibitor is replaced every 48 h. Cultures are maintained for up to 30 days and monitored daily by contrast phase microscopy. […] The comparative effectiveness of each inhibitor was estimated from plots of the duration of the intracellular cycle of T. cruzi (days) in treated vs untreated control wells.

[3] = target: cruzain (Trypanosoma cruzi, UniProt P25779); format: biochemical; details: incubation 90 s to 24 h
cruzain, sequence (P25779 123-467): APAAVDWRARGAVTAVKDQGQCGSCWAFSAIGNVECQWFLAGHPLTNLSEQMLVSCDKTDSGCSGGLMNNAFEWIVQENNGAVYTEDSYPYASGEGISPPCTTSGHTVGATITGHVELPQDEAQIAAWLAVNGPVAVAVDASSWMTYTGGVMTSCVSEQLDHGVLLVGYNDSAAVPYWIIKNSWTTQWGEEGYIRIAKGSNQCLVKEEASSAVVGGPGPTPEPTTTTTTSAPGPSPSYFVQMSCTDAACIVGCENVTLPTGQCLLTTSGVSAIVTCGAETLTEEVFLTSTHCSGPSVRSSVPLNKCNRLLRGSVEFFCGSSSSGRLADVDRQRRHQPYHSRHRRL
Method: The time dependence of inhibition was determined by incubating cruzain with inhibitors, DMSO, or enzyme alone at room temperature for time points between 90 s and 24 h. The enzymatic activity was determined as above.
A known irreversible inhibitor, K002 (morpholino urea-Phe-homoPhe-vinyl sulfone benzene; Axys Pharmaceuticals Inc., South San Francisco, Calif.), and a known reversible covalent inhibitor, leupeptin, were used as controls for the thio semicarbazones.

[4] = 5 min incubation, room temperature, pH 5.50, read-out: IC50 against cruzain

T. cruzi cathepsin L-like protease (cruzain), sequence (P25779 123-467): as above

Structure (SMILES)	effect on T. cruzi in cell culture (trypanocidal / trypanostatic / inactive) [2]	melting point	also measured
CC(=NNC(N)=S)c1ccc(Cl)c(Cl)c1 [Compound 3h, 3′,4′-Dichloroacetophenone Thio Semicarbazone]	trypanocidal	–	cruzain inhibitory activity, in words [1]: better IC50 values than 1i
CC(=NNC(N)=S)c1ccccc1Br [Compound 2l, 2′-Bromoacetophenone Thio Semicarbazone]	–	144.5 to 146.2 °C	–
CCC(=NNC(N)=S)c1cccc(C(F)(F)F)c1 [Compound 2b, 3′-Trifluoromethylpropiophenone Thio Semicarbazone]	trypanocidal	–	cruzain inhibitory activity, in words [1]: better IC50 values than 1i; IC50 [1, 4]: 0.05 µM
FC(F)(F)c1cccc(NC(=S)N2CCC(c3cccc(Cl)c3)=N2)c1 [Compound 5e, 3-(3-Chlorophenyl)-2-pyrazoline-1-(N-3-tri-fluoromethylphenyl)thiocarboxamide]	–	–	time dependence of cruzain inhibition [3]: showed time dependency
CCC(=NNC(N)=S)c1ccc(OC)cc1 [Compound 2g, 4′-Methoxypropiophenone Thio Semicarbazone]	–	117.8 to 119.8 °C	–
CCCCCCNC(=S)N1CCC(c2cccc(Br)c2)=N1 [Compound 5f, 3-(3-Bromophenyl)-2-pyrazoline-1-(N-hexyl)-thiocarboxamide]	–	117 to 118.2 °C	IC50 [1, 4]: 1 to 2 µM
CCC(=NNC(N)=S)c1ccc(Br)cc1 [Compound 2e, 4′-Bromopropiophenone Thio Semicarbazone]	–	171.3 to 173 °C	–
CC(=NNC(N)=S)c1cc(C(F)(F)F)cc(C(F)(F)F)c1 [Compound 3f, 3′,5′-Bis(trifluoromethyl)acetophenone Thio Semicarbazone]	trypanostatic	–	cruzain inhibitory activity, in words [1]: better IC50 values than 1i
CC1CN(C(N)=S)N=C1c1cccc(C(F)(F)F)c1 (stereo not shown) [Compound 4h, 3-(3-Trifluoromethylphenyl)-4-methyl-2-pyrazoline-1-thiocarboxamide]	trypanocidal	120.8 to 121.9 °C	cruzain inhibitory activity, in words [1]: better than that of 1i
CC(=NNC(N)=S)c1ccccc1Cl [Compound 2m, 2′-Chloroacetophenone Thio Semicarbazone]	–	155.8 to 156.7 °C	–
CCC(=NNC(N)=S)c1ccc(Cl)cc1Cl [Compound 2j, 2′,4′-Dichloropropiophenone Thio Semicarbazone]	–	171.8 to 173 °C	–
CC(=O)N[C@@H](CC(C)C)C(=O)N[C@@H](CC(C)C)C(=O)N[C@H](C=O)CCCNC(=N)N [leupeptin, reference compound]	–	–	time dependence of cruzain inhibition [3]: rapidly time-dependent
CCC(NNC(N)=S)c1cccc(Br)c1 (stereo not shown) [Compound 7a, 1-(3′-bromophenyl)propylaminothiourea]	–	–	cruzain inhibitory activity, in words [1]: poor activity; time dependence of cruzain inhibition [3]: showed time dependency
CCC(=NNC(N)=S)c1cc(C(F)(F)F)cc(C(F)(F)F)c1 [Compound 2h, 3′,5′-bis(trifluoromethyl)propiophenone Thio Semicarbazone]	–	–	cruzain inhibitory activity, in words [1]: better IC50 values than 1i; IC50 [1, 4]: 0.02 µM; increase in activity over 1i (cruzain) ([1]; compared to 1i): ~5 fold
CN(C)c1ccc(C=NNC(N)=S)c2ccccc12 [Compound 1l, 4-Dimethylamino-1-naphthaldehyde Thio Semicarbazone]	–	170.5 to 171.2 °C	–
CCC(=NNC(N)=S)c1ccc2cc(OC)ccc2c1 [Compound 1k, 6′-Methoxy-2′-propiononaphthone Thio Semicarbazone]	–	170.5 to 171.2 °C	–
NC(=S)NN=Cc1ccccc1C(F)(F)F [Compound 2p, 2-Trifluoromethylbenzaldehyde Thio Semicarbazone]	–	248.3 to 249.4 °C	–

Structure (SMILES)	effect on T. cruzi in cell culture (trypanocidal / trypanostatic / inactive) [2]	melting point	also measured
CCC(=NN(SC)C(N)=O)c1cccc(Br)c1 [Compound 5a, 3′-Bromopropiophenone N-Methyl Thio Semicarbazone]	–	156.6 to 158 °C	–
NC(=S)N1CCC(c2cccc(Cl)c2)=N1 [Compound 4c, 3-(3-Chlorophenyl)-2-pyrazoline-1-thiocarboxamide]	inactive	–	–
NC(=S)NN=Cc1cccc(Br)c1 [Compound 3a, 3-Bromobenzaldehyde Thio Semicarbazone]	–	–	IC50 [1, 4]: 1.3 µM; time dependence of cruzain inhibition [3]: time-dependent
CCC(=NNC(N)=S)c1ccc(Cl)cc1 [Compound 2f, 4′-Chloropropiophenone Thio Semicarbazone]	–	175.1 to 176.8 °C	–
NC(=S)N1CCC(c2ccc(Cl)c(Cl)c2)=N1 [Compound 4e, 3-(3,4-Dichlorophenyl)-2-pyrazoline-1-thiocarboxamide]	trypanocidal	199.3 to 201.4 °C	cruzain inhibitory activity, in words [1]: better than that of 1i
S=C(Nc1cccc(Cl)c1)N1CCC(c2cccc(Br)c2)=N1 [Compound 5d, 3-(3-Bromophenyl)-2-pyrazoline-1-(IL3-chlorophenyl)thiocarboxamide]	no effect on the parasites	197.5 to 198.8 °C	IC50 [1, 4]: 1 to 2 µM
CCC(=NNC(N)=S)c1cccc(Cl)c1 [Compound 2a, 3′-Chloropropiophenone Thio Semicarbazone]	trypanocidal	–	IC50 [1]: 0.22 µM
NC(=S)N1CCC(c2cccc(C(F)(F)F)c2)=N1 [Compound 4g, 3-(3-Trifluoromethylphenyl)-2-pyrazoline-1-thiocarboxamide]	inactive	159.2 to 161.1 °C	cruzain inhibitory activity, in words [1]: better than that of 1i
NC(=S)N1CCC(c2cccc(Br)c2)=N1 [Compound 4a, 3-(3-Bromophenyl)-2-pyrazoline-1-thiocarboxamide]	–	172.9 to 174.5 °C	decrease in activity as compared to 1i (cruzain) ([1]; compared to 1i): 2 fold; time dependence of cruzain inhibition [3]: time-dependent
CC(=NNC(N)=O)c1cccc(Br)c1 [Compound 6b, 3′-Bromoacetophenone Semicarbazone]	–	229.3 to 231.3 °C	–
Cn1cc(C=NNC(N)=S)c2ccccc21 [Compound 1m, 1-Methylindole-3-carboxaldehyde Thio Semicarbazone]	–	200.3 to 201.2 °C	–
CC(=NNC(N)=S)c1cccc(C(F)(F)F)c1 [Compound 3d, 3-Trifluoromethylacetophenone Thio Semicarbazone]	trypanostatic	–	–
CC1CN(C(N)=S)N=C1c1cccc(Cl)c1 (stereo not shown) [Compound 4d, 3-(3-Chlorophenyl)-4-methyl-2-pyrazoline-1-thiocarboxamide]	trypanocidal	131.3 °C (dec.)	–
CCC(=NNC(N)=S)c1cccc(F)c1 [Compound 2c, 3′-Fluoropropiophenone Thio Semicarbazone]	–	138.8 to 139.5 °C	–
CCC(=NNC(N)=S)c1ccccc1 [Compound 2d, Propiophenone Thio Semicarbazone]	–	116.8 to 117.9 °C	drop / loss of activity compared to 1i (cruzain) ([1]; compared to 1i): at least 2 orders of magnitude
NC(=O)NN=Cc1ccc(-c2cccc(Cl)c2)o1 [Compound 6c, 5-(3-Chlorophenyl)-2-furancarboxaldehyde Semicarbazone]	–	192.1 to 194.8 °C	–
